These results are taken from patent US8080237B2, “Use of tellurium compounds for protection from ultra-violet radiation” (priority 2005, dated 2011).

The subject of data set [1] is rats. The data set can be described thus: Toxicity tests (LD50) in rats. The class given is in vivo. As to conditions: intravenous and intramuscular administration.
Data set [2] deals with interferon (IFN). The following applies: mice; J. Natl. Cancer Inst. 88(18):1276-84, 1996; cited from earlier work.
In data set [3] the test system is IL-10. The following applies: Cell Immunol. 176(2):180-5, 1997; J. Natl. Cancer Inst. 88(18):1276-84, 1996; cited from earlier work.
Data set [4] concerns interferon (IFN). The following applies: humans; Nat. Immun. Cell Growth Regul. 9(3):182-90, 1990; Immunology 70(4):473-7, 1990; cited from earlier work.
Data set [5] has as its system IL-10 gene expression in epidermal cells. The data set can be described thus: RT-PCR for IL-10 transcripts in epidermal cells from suction blisters after in vivo UVB irradiation of volunteers' forearms. More on the design: species or system human. The following applies: 3% AS101 in petroleum jelly U.S.P., topical on forearm before UVB; blisters 24 h after UVB exposure; compared with UVB alone; G3PDH as control transcript. The procedure: In normal volunteers, suction blisters were induced by vacuum and heat on normal skin, or on UVB-irradiated skin of volar forearms 24 h after exposure. Single cell suspensions of epidermal cells were prepared by limited trypsinization of the blister roof. Briefly, epidermal sheets were washed in PBS (Biofluids. Roekville. MD) and floated in 0.5% trypsin (United Stares Biochemical Corp. Cleveland. OH) for 45 min al 37° C., transferred to HBSS (Biofluids) containing 0.05 DNase (Sigma Chemical Co. SI. Louis. MO) and 10% heat-inactivated pooled human AB^+ serum (Sigma Chemical Co.) and disaggregated by repeated aspirations and expulsions through a syringe. […]
UVB irradiation in vivo was performed with 4 FS20 fluorescent lamps (Sylvania. Springfield. Va.) that emit wavelengths between 280 and 320 nm with a peak at 313 nm. Light intensity was determined using an IL-770 Germicidal-Erythemal radiometer (international Light Inc. Newburyport. Me.) equipped with a sensor and a 313-nm filter. […]
The frozen pellets of epidermal cells were dissolved by repeated pipetting 800 μl of lysis bufer and transferred to RNase-free Eppendorf tubes containing 500 μg of superparamagnetic polystyrene Dynaheads Oligo(dT)25 (Dynal. Great Neck. N.Y.). […] The concentration of mRNA was measured on a Beckman DU-64 spectrophotometer employing a 5 μl Ultra microcell. […]

Where two headings read alike, the source gives them in different places.

For the compound `Cl[TeH]1(Cl)(Cl)OCCO1.N` [AS101, ammonium trichloro(dioxyethylene-O,O′)tellurate], the “LD50 relative to the immunologically effective dose” value in data set [1] is recorded as 500-1000 folds. Also, the “activation of interferon (IFN)” value in data set [2] and in data set [4] was “potent activator of interferon” throughout. In data set [3], the “effect on IL-10 at the m-RNA level” value is listed as “inhibit IL-10 at the m-RNA level”. Besides, in data set [5], the “IL-10 transcription in epidermal cells after UVB (RT-PCR, FIG. 1)” value is reported as “significant decrease of IL-10”.
